Measurements as given in ChEMBL document CHEMBL1201862, “PubChem BioAssay data set” (2004).
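The compound was tested at five concentrations on cells cultured in 96-well plates, with a 48-hour exposure period. The concentration for 50% growth inhibition is given as GI50.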 Calls of active or inactive are those of the source. No stated cut-off is given here; in the data, active = GI50 up to about 1.1 µM and inactive = higher.

Experiments:
Assay in all cases: growth of human tumour cells (NCI), 48 h
SK-MEL-5 = tested on: SK-MEL-5
NCI-H522 = tested on: NCI-H522
SF-539 = tested on: SF-539
M14 = tested on: M14
HCT-15 = tested on: HCT-15
HCC 2998 = tested on: HCC 2998
XF498 = tested on: XF498
EKVX = tested on: EKVX
Malme-3M = tested on: Malme-3M
CCRF-CEM = tested on: CCRF-CEM
MDA-N = tested on: MDA-N
RXF 393 = tested on: RXF 393
MDA-MB-231 = tested on: MDA-MB-231
HT-29 = tested on: HT-29
TK-10 = tested on: TK-10
OVCAR-3 = tested on: OVCAR-3
SF-295 = tested on: SF-295
DU-145 = tested on: DU-145
PC-3 = tested on: PC-3
ACHN = tested on: ACHN

Structure (SMILES)	GI50 (SK-MEL-5)	GI50 (NCI-H522)	GI50 (SF-539)	GI50 (M14)	GI50 (HCT-15)	GI50 (HCC 2998)	GI50 (XF498)	GI50 (EKVX)	GI50 (Malme-3M)	GI50 (CCRF-CEM)	GI50 (MDA-N)	GI50 (RXF 393)	GI50 (MDA-MB-231)	GI50 (HT-29)	GI50 (TK-10)	GI50 (OVCAR-3)	GI50 (SF-295)	GI50 (DU-145)	GI50 (PC-3)	GI50 (ACHN)
CCC(C)C(=O)O[C@H]1C(=O)O[C@@H]2C[C@H]3C(C)=CC(=O)[C@@H](O)[C@]3(C)[C@H]3[C@@H](O)[C@H](O)[C@@]4(C)OC[C@]32[C@@H]14 (stereo not given in full)	< 16.9 nM (active)	14.7 nM (active)	< 17.6 nM (active)	< 14.4 nM (active)	< 20.4 nM	< 14.7 nM (active)	20.8 nM (active)	121 nM (active)	< 15.2 nM (active)	14.3 nM (active)	< 10 nM (active)	15 nM (active)	< 10 nM (active)	< 14.6 nM (active)	< 19.8 nM (active)	16.9 nM (active)	< 20.5 nM (active)	< 10 nM (active)	< 10 nM (active)	< 15.6 nM (active)
Cc1cc(C(=C2C=CC(=N)C=C2)c2ccc(N)cc2)ccc1N [FUCHSIN, BASIC]	1460 nM (inactive)	2840 nM (inactive)	706 nM (active)	4230 nM (inactive)	12000 nM	3230 nM (inactive)	2770 nM (inactive)	6040 nM (inactive)	2650 nM (inactive)	4190 nM (inactive)	4720 nM (inactive)	7160 nM (inactive)	6300 nM (inactive)	3660 nM (inactive)	8970 nM (inactive)	3960 nM (inactive)	564 nM (active)	5400 nM (inactive)	3480 nM (inactive)	8090 nM (inactive)
